The results in this text go back to PubChem BioAssay AID330 (DTP/NCI, 2004).

In this assay the test system is P388 leukemia ip, CD2F1 mice, survival T/C. Description: NCI In Vivo Anticancer Drug Screen. Data for tumor model P388 Leukemia (intraperitoneal) in CD2F1 (CDF1) mice. To be noted: endpoint: median survival time, higher = longer survival. An outline of the steps: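 Mice carrying the transplanted tumor received test compound or vehicle. Survival was recorded in each group, and the value is the treated-group measurement divided by that of the vehicle-treated control group.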

Where [1] appears, read: dose: 100.0 mg/kg/injection, schedule: Q01DX009 (ip), vehicle: saline.
Setting [2] is: dose: 50.0 mg/kg/injection, schedule: Q01DX005 (ip), vehicle: saline with Tween-80.
Setting [3] is: dose: 100.0 mg/kg/injection, schedule: Q01DX005 (ip), vehicle: saline with Tween-80.
Setting [4] is: dose: 12.5 mg/kg/injection, schedule: Q01DX009 (ip), vehicle: saline with Tween-80.
[5] abbreviates: dose: 50.0 mg/kg/injection, schedule: Q01DX009 (ip), vehicle: saline with Tween-80.
Setting [6] is: dose: 100.0 mg/kg/injection, schedule: Q01DX009 (ip), vehicle: saline with Tween-80.
Where [7] appears, read: dose: 60.0 mg/kg/injection, schedule: Q01DX005 (ip), vehicle: saline with Tween-80.
[8] abbreviates: dose: 120.0 mg/kg/injection, schedule: Q01DX005 (ip), vehicle: saline with Tween-80.
Setting [9] is: dose: 240.0 mg/kg/injection, schedule: Q01DX005 (ip), vehicle: saline with Tween-80.
[10] abbreviates: dose: 200.0 mg/kg/injection, schedule: Q01DX009 (ip), vehicle: saline.
The mark [11] stands for this setting: dose: 200.0 mg/kg/injection, schedule: Q01DX009 (ip), vehicle: saline with Tween-80.

Several values for one entry are separate records, joined by “and”; a condition that tells them apart may be missing. Identical values can stand only once. Inconclusive results and toxic doses are left out.

Turning to `O=c1ccn(C2CCCCC2)c(=O)[nH]1`, the T/C reads like this: (dose: 6.25 mg/kg/injection, schedule: Q01DX005 (ip), vehicle: Klucel (hydroxypropylcellulose) (HPC)) 99 % of control; (dose: 12.5 mg/kg/injection, schedule: Q01DX005 (ip), vehicle: Klucel (hydroxypropylcellulose) (HPC)) 95 % of control; (dose: 25.0 mg/kg/injection, schedule: Q01DX005 (ip), vehicle: Klucel (hydroxypropylcellulose) (HPC)) 91 % of control.
On to `C/C(=N\O)c1cc(/C(C)=N/O)cc(/C(C)=N/O)c1`, for which the T/C reads like this: (dose: 50.0 mg/kg/injection, schedule: Q01DX009 (ip), vehicle: saline) 108 % of control; under setting [1], 92 % of control.
As for `CCOc1ccc(C(C)c2cc3c(cc2OCC)OCO3)c(C)c1` (stereo not drawn), the T/C (dose: 50.0 mg/kg/injection, schedule: Q01DX005 (ip), vehicle: Klucel (hydroxypropylcellulose) (HPC)) is 109 % of control; the T/C (dose: 100.0 mg/kg/injection, schedule: Q01DX005 (ip), vehicle: Klucel (hydroxypropylcellulose) (HPC)) is 103 % of control; the T/C (dose: 200.0 mg/kg/injection, schedule: Q01DX005 (ip), vehicle: Klucel (hydroxypropylcellulose) (HPC)) is 112 % of control.
As to `O=C1CC2COc3ccc(OCCN4CCCC4)cc3C2=NN1c1ccccc1` (stereo not drawn), the T/C is 103 % of control under setting [2] and 103 % of control under setting [3].
With `Nc1ccc2ccc(O)cc2c1`, the T/C reads like this: under setting [4], 100 % of control; (dose: 25.0 mg/kg/injection, schedule: Q01DX009 (ip), vehicle: saline with Tween-80) 100 % of control; under setting [5], 100 % of control; under setting [6], 98 % of control.
Take `CC1(C)OC2CC3CC(O)CC3C2O1` (stereo not drawn): the T/C was 98 % of control under setting [7], 102 % of control under setting [8] and 102 % of control under setting [9].
For `C=C(C(=O)N(C(C)C)C(C)C)C(C)CC(C)C(=O)N(C(C)C)C(C)C` (stereo not drawn), the T/C (dose: 50.0 mg/kg/injection, schedule: Q04DX002 (ip), vehicle: Klucel (hydroxypropylcellulose) (HPC)) was 99 % of control; the T/C (dose: 100.0 mg/kg/injection, schedule: Q04DX002 (ip), vehicle: Klucel (hydroxypropylcellulose) (HPC)) was 104 % of control; the T/C (dose: 200.0 mg/kg/injection, schedule: Q04DX002 (ip), vehicle: Klucel (hydroxypropylcellulose) (HPC)) is 107 % of control; the T/C (dose: 400.0 mg/kg/injection, schedule: Q04DX002 (ip), vehicle: Klucel (hydroxypropylcellulose) (HPC)) was 104 % of control.
For the compound `CC(C)=N/N=C(/N)[Se]`, the T/C runs as follows: (dose: 3.12 mg/kg/injection, schedule: Q01DX009 (ip), vehicle: saline with Tween-80) 95 % of control; (dose: 6.25 mg/kg/injection, schedule: Q01DX009 (ip), vehicle: saline with Tween-80) 103 % of control; under setting [4], 97 % of control.
Take `CC(O)CN1C(=O)c2cccc3cc([N+](=O)[O-])cc(c23)C1=O` (stereo not drawn): the T/C was 96 % of control under setting [2]; 104 % of control under setting [3]; 104 % of control (dose: 200.0 mg/kg/injection, schedule: Q01DX005 (ip), vehicle: saline with Tween-80).
For the compound `COc1ccc(NC(=O)C2C(=O)C(=O)N(c3ccc(OC)cc3OC)C2=O)c(OC)c1` (stereo not drawn), the T/C (dose: 50.0 mg/kg/injection, schedule: Q01DX009 (ip), vehicle: Klucel (hydroxypropylcellulose) (HPC)) was 98 % of control; the T/C (dose: 100.0 mg/kg/injection, schedule: Q01DX009 (ip), vehicle: Klucel (hydroxypropylcellulose) (HPC)) is 100 % of control; the T/C (dose: 200.0 mg/kg/injection, schedule: Q01DX009 (ip), vehicle: Klucel (hydroxypropylcellulose) (HPC)) was 98 % of control.
Take `CC1CCCC(CC2CCCC[N-]2)[N-]1.CC1CCCC(CC2CCCC[N-]2)[N-]1.[Ni+2].[O-][Cl+3]([O-])([O-])O` (stereo not drawn): the T/C is, setting by setting: (dose: 25.0 mg/kg/injection, schedule: Q01DX001 (ip), vehicle: saline) 95 % of control; (dose: 50.0 mg/kg/injection, schedule: Q01DX001 (ip), vehicle: saline) 94 % of control; (dose: 100.0 mg/kg/injection, schedule: Q01DX001 (ip), vehicle: saline) 108 % of control and 95 % of control.
Consider `COC1C(c2cc3ccccc3oc2=O)OC2OC(C)(C)OC21` (stereo not drawn), for which the T/C reads like this: (dose: 5.0 mg/kg/injection, schedule: Q01DX001 (ip), vehicle: Klucel (hydroxypropylcellulose) (HPC)) 97 % of control; (dose: 10.0 mg/kg/injection, schedule: Q01DX001 (ip), vehicle: Klucel (hydroxypropylcellulose) (HPC)) 101 % of control; (dose: 20.0 mg/kg/injection, schedule: Q01DX001 (ip), vehicle: Klucel (hydroxypropylcellulose) (HPC)) 100 % of control.
Take `COC(=O)/C(=C/c1ccccc1)NC(C)=O`: the T/C by setting is: (dose: 60.0 mg/kg/injection, schedule: Q01DX005 (ip), vehicle: Klucel (hydroxypropylcellulose) (HPC)) 104 % of control; (dose: 120.0 mg/kg/injection, schedule: Q01DX005 (ip), vehicle: Klucel (hydroxypropylcellulose) (HPC)) 101 % of control; (dose: 240.0 mg/kg/injection, schedule: Q01DX005 (ip), vehicle: Klucel (hydroxypropylcellulose) (HPC)) 97 % of control.
Consider `Nc1nnc(-c2ccc(Br)cc2)o1`, for which the T/C is, setting by setting: under setting [7], 106 % of control; under setting [8], 109 % of control; under setting [9], 114 % of control.
`COc1cc([C@@H]2c3cc4c(c(O)c3C[C@H]3COC(=O)[C@@H]32)OCO4)cc(OC)c1O`: the T/C was 121 % of control (dose: 0.25 mg/kg/injection, schedule: Q01DX009 (ip), vehicle: suspension in saline); 150 % of control (dose: 1.0 mg/kg/injection, schedule: Q01DX009 (ip), vehicle: saline); 99 % of control (dose: 1.0 mg/kg/injection, schedule: Q01DX009 (ip), vehicle: suspension in saline).
For `C=CCOC(OCC=C)C(OCC=C)OCC=C`, the T/C runs as follows: under setting [1], 109 % of control; (dose: 100.0 mg/kg/injection, schedule: Q04DX003 (ip), vehicle: saline) 100 % of control; under setting [10], 100 % of control; (dose: 200.0 mg/kg/injection, schedule: Q04DX003 (ip), vehicle: saline) 100 % of control; (dose: 400.0 mg/kg/injection, schedule: Q01DX009 (ip), vehicle: saline) 122 % of control; (dose: 400.0 mg/kg/injection, schedule: Q04DX003 (ip), vehicle: saline) 100 % of control.
As for `CCC(=O)NC1=C(N2CC2C)C(=O)C(NC(=O)CC)=C(N2CC2C)C1=O` (stereo not drawn), the T/C reads like this: (dose: 12.5 mg/kg/injection, schedule: Q01DX009 (ip), vehicle: Klucel (hydroxypropylcellulose) (HPC)) 210 % of control; (dose: 12.5 mg/kg/injection, schedule: Q01DX009 (ip), vehicle: saline) 164 % of control; (dose: 25.0 mg/kg/injection, schedule: Q01DX009 (ip), vehicle: Klucel (hydroxypropylcellulose) (HPC)) 103 % of control; (dose: 25.0 mg/kg/injection, schedule: Q01DX009 (ip), vehicle: saline) 117 % of control.
Take `CC(C)N(C(=O)c1ccc(Cl)c(Cl)c1)C(C)C`: the T/C (dose: 12.5 mg/kg/injection, schedule: Q04DX003 (ip), vehicle: saline with Tween-80) was 102 % of control and 103 % of control; the T/C (dose: 25.0 mg/kg/injection, schedule: Q04DX003 (ip), vehicle: saline with Tween-80) is 102 % of control and 97 % of control; the T/C (dose: 50.0 mg/kg/injection, schedule: Q04DX003 (ip), vehicle: saline with Tween-80) is 100 % of control and 97 % of control; the T/C (dose: 100.0 mg/kg/injection, schedule: Q04DX003 (ip), vehicle: saline with Tween-80) is 103 % of control and 106 % of control (2×); the T/C (dose: 200.0 mg/kg/injection, schedule: Q04DX003 (ip), vehicle: saline with Tween-80) is 105 % of control; the T/C (dose: 400.0 mg/kg/injection, schedule: Q04DX003 (ip), vehicle: saline with Tween-80) is 101 % of control.
For `CC(=O)OCC1OC(n2ccc(N)nc2=O)C(OC(C)=O)C1OC(C)=O` (stereo not drawn), the T/C under setting [1] is 162 % of control and the T/C under setting [10] was 178 % of control.
As for `COC(NC(N)=O)C(=O)O` (stereo not drawn), the T/C reads like this: under setting [5], 99 % of control; under setting [6], 99 % of control; under setting [11], 99 % of control.
For the compound `ClCC1CSC2(CCCCC2)O1` (stereo not drawn), the T/C was 104 % of control and 115 % of control under setting [5]; 100 % of control and 119 % of control under setting [6]; 97 % of control under setting [11].
For `COC(=O)[C@H]1O[C@H]1c1cc[n+]([O-])cc1`, the T/C reads like this: (dose: 25.0 mg/kg/injection, schedule: Q01DX005 (ip), vehicle: water) 101 % of control; (dose: 50.0 mg/kg/injection, schedule: Q01DX005 (ip), vehicle: water) 102 % of control; (dose: 100.0 mg/kg/injection, schedule: Q01DX005 (ip), vehicle: water) 105 % of control; (dose: 200.0 mg/kg/injection, schedule: Q01DX005 (ip), vehicle: water) 109 % of control.
